{
  "source": "patent US10168342B2",
  "about": "“Lipid probes and uses thereof” (THE SCRIPPS RESEARCH INSTITUTE, priority 2015, dated 2019)",
  "assay_in_all_cases": "isoTOP-ABPP mapping of AEA-DA-modified peptides in Neuro2a cells",
  "assay_type_in_all_cases": "cell-based",
  "key": {"[1]": {"target": "T1, AEA-DA-modified peptides in Neuro2a cells (Mus musculus, UniProt P18242)", "T1 construct": "endogenous in cells; host or cells: Neuro2a", "T1 sequence (P18242 65-410)": "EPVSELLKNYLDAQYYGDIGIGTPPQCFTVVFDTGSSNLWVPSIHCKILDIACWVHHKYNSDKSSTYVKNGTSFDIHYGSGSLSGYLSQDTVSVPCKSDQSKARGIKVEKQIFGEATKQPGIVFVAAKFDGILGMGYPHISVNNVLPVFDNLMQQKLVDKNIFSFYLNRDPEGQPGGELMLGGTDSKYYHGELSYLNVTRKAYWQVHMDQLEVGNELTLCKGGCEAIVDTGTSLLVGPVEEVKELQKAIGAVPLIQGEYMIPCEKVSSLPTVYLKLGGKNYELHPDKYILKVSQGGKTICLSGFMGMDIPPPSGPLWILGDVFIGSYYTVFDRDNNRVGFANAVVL", "details": "AEA-DA-modified peptide CTSD P18242 312-330, SEQ ID NO 27; probe 100 μM, 12 replicates", "procedure": "(§1) Experiments were performed as described above using the AEA-DA probe (100 μM) in 3.0 mL of DMEM (serum-free) and Neuro2A cells without (twelve replicates; ten biological; two technical). For the ligand competition study, cells were treated with the AEA-DA probe (50 μM) and DMSO or MJN228 (50 μM) treatment. Cells were harvested and processed as described above. Whole cell lysates (500 μL at 1.5 mg/mL) were processed for MS analysis using the previously described isoTOPABPP protocol (Speers and Cravatt, 2005). In brief, for global mapping of AEA-DA-modified peptides, proteomes were split into two fractions, which were subjected to click chemistry conditions with either light or heavy isotopically labeled TEV-tags. For the […] competition study, proteomes were subjected to click chemistry conditions with either light (DMSO) or heavy (MJN228-treated) TEV-tags. Light and heavy-tagged proteomes in each experiment were then combined, and, following enrichment of probe-labeled targets using streptavidin beads, proteins were digested on-bead with trypsin and remaining immobilized peptides released with a subsequent TEV protease digestion. The resulting probe-modified peptides were collected for MS analysis, which was performed as described above with differences in the salt bumps applied in the chromatographic gradients which were 0%, 30%, 60%, 90% and 100% NH4OAc (500 mM). The protein identification searches of the MS data were performed using the same software packages described above with the following changes applied to identify the peptides modified with AEA-DA and the cleaved TEV tag. All amino acids were considered as possible residues for modification. To facilitate the computational searches, sets of up to 3 amino acids were searched using ProLuCID and filtered with DTASelect as described above. The mass of the modification used to search for probe-modified peptides was +727.4745 m/z for the probe plus the light TEV-tag and +733.4831 m/z for the heavy counterpart. […] For global mapping experiments, AEA-DA-modified peptides were expected to show a ratio of “heavy” and “light” signals of ˜1.0 (0.5<ratio<2.0) and were required to have been detected in at least two of the twelve replicate experiments.\n(§2) In some embodiments, the ligands are tested for their interaction to NUCB1 in cells. […] MJN228 inhibited lipid probe binding to NUCB1 at concentrations as low as 10 μM, with near-maximal inhibition observed at ˜25 μM (FIG. 16A). […] The site of arachidonoyl probe (and MJN228) binding to NUCB1 was mapped in cells, which was accomplished by treating Neuro2A cells with the AEA-DA probe (50 μM) in the presence of DMSO or MJN228 (50 μM), followed by UV irradiation, CuAAC conjugation of AEA-DA-labeled proteins to isotopically light (DMSO-treated cells) and heavy (MJN228-treated cells) azide-biotin tags featuring a TEV protease-cleavable linker, and LCMS/MS analysis using a previously described platform, termed isoTOP-ABPP, for mapping probe-modified peptides in proteomes (Speers and Cravatt, 2005). A AEA-DA labeled peptide was identified for NUCB1 (aa 53-68) in DMSO-treated cells and the signals for this peptide were substantially (>5-fold) reduced in MJN228-treated cells (FIG. 15C). This AEA-DA labeling site was confirmed using recombinant, purified hNUCB1 and tandem MS analysis which narrowed down the site of probe modification to His67 (FIGS. 16B and 16C)."}, "[2]": {"target": "T2, AEA-DA-modified peptides in Neuro2a cells (Mus musculus, UniProt Q9CQ45)", "T2 construct": "endogenous in cells; host or cells: Neuro2a", "T2 sequence (Q9CQ45 31-171)": "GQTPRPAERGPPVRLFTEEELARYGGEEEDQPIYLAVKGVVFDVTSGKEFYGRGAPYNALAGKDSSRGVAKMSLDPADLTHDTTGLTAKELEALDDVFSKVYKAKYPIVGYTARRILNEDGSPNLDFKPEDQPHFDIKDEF", "details": "AEA-DA-modified peptide NENF Q9CQ45 84-94, SEQ ID NO 68; probe 100 μM, 12 replicates", "procedure": "as §1, §2"}, "[3]": {"target": "T3, AEA-DA-modified peptides in Neuro2a cells (Mus musculus, UniProt P08113)", "T3 construct": "endogenous in cells; host or cells: Neuro2a", "T3 sequence (P08113 22-802)": "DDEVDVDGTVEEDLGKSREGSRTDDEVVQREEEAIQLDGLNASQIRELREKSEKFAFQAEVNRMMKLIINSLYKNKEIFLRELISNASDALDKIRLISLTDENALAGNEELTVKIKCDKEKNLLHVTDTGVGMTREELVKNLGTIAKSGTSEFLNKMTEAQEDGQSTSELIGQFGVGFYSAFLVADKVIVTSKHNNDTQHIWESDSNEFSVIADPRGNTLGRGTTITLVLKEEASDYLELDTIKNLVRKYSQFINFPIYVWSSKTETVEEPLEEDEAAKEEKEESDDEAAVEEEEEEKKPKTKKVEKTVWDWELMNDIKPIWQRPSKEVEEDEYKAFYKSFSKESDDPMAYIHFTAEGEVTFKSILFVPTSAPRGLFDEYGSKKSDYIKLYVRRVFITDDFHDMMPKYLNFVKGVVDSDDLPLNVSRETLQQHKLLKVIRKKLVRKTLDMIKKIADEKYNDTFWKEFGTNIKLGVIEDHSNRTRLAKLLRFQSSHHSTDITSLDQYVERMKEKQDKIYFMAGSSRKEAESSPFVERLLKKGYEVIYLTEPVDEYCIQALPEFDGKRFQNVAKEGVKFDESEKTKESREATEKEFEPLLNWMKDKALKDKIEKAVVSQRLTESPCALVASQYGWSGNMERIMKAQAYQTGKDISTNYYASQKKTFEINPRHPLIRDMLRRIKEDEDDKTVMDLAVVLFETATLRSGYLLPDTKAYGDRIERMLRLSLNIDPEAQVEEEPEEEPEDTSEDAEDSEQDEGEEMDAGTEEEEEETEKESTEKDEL", "details": "AEA-DA-modified peptide HSP90B1 P08113 664-672, SEQ ID NO 51; probe 100 μM, 12 replicates", "procedure": "as §1, §2"}, "[4]": {"target": "T4, AEA-DA-modified peptides in Neuro2a cells (Mus musculus, UniProt P14733)", "T4 construct": "endogenous in cells; host or cells: Neuro2a", "T4 sequence (P14733 whole entry)": "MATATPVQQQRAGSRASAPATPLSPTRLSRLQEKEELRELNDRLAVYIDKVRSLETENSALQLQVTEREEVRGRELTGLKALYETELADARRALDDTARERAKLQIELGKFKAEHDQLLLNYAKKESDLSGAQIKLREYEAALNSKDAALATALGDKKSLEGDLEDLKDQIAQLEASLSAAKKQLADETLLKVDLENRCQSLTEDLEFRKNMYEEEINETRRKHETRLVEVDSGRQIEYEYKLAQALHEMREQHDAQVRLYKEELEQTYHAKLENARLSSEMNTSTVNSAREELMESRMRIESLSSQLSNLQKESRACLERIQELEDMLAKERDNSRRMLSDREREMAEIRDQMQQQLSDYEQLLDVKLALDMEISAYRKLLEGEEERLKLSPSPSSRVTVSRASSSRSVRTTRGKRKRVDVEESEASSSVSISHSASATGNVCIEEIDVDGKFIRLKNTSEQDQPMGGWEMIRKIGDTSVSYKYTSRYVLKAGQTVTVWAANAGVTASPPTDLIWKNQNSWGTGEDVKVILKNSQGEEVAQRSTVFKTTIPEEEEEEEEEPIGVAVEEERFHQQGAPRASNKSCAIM", "details": "AEA-DA-modified peptide LMNB1 P14733 159-183, SEQ ID NO 56; probe 100 μM, 12 replicates", "procedure": "as §1, §2"}, "[5]": {"target": "T5, AEA-DA-modified peptides in Neuro2a cells (Mus musculus, UniProt Q91V01)", "T5 construct": "endogenous in cells; host or cells: Neuro2a", "T5 sequence (Q91V01 whole entry)": "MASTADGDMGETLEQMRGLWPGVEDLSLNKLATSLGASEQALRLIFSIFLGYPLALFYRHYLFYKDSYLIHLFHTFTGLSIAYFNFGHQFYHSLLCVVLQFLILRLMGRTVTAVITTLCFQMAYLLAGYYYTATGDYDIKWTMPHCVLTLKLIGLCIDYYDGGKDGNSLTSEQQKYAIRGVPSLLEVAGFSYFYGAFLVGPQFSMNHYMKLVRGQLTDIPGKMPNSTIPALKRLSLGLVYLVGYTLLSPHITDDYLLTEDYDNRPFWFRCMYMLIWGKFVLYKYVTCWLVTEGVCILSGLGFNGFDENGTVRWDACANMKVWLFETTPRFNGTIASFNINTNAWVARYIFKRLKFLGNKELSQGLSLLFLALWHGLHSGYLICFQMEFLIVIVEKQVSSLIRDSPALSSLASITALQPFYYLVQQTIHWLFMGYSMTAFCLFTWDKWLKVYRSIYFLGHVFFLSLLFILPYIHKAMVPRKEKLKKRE", "details": "AEA-DA-modified peptide LPCAT3 Q91V01 18-31, SEQ ID NO 58; probe 100 μM, 12 replicates", "procedure": "as §1, §2"}, "[6]": {"target": "T6, AEA-DA-modified peptides in Neuro2a cells (Mus musculus, UniProt P61161)", "T6 construct": "endogenous in cells; host or cells: Neuro2a", "details": "AEA-DA-modified peptide ACTR2 P61161 259-295, SEQ ID NO 5; probe 100 μM, 12 replicates", "procedure": "as §1, §2"}, "[7]": {"target": "T7, AEA-DA-modified peptides in Neuro2a cells (Mus musculus, UniProt P35505)", "T7 construct": "endogenous in cells; host or cells: Neuro2a", "T7 sequence (P35505 whole entry)": "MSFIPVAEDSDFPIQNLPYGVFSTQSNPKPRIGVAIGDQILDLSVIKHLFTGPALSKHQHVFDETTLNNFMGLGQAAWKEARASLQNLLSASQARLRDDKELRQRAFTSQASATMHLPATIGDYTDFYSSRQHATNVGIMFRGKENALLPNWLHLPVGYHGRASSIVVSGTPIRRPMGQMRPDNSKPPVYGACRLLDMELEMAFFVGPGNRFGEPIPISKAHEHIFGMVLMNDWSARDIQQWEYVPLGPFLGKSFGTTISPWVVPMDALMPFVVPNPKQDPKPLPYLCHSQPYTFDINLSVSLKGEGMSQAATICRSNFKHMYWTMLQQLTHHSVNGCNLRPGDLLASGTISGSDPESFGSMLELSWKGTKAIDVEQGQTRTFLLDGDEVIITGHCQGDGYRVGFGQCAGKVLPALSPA", "details": "AEA-DA-modified peptide FAH P35505 238-254, SEQ ID NO 40; probe 100 μM, 12 replicates", "procedure": "as §1, §2"}, "[8]": {"target": "T8, AEA-DA-modified peptides in Neuro2a cells (Mus musculus, UniProt P62259)", "T8 construct": "endogenous in cells; host or cells: Neuro2a", "T8 sequence (P62259 whole entry)": "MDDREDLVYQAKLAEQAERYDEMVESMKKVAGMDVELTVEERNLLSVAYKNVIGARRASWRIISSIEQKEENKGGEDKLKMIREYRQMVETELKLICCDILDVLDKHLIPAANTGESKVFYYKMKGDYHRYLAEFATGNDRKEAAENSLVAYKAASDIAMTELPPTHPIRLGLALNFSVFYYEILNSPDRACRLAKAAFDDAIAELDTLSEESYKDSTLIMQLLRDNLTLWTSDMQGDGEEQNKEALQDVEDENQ", "details": "AEA-DA-modified peptide YWHAE P62259 197-226, SEQ ID NO 121; probe 100 μM, 12 replicates", "procedure": "as §1, §2"}, "[9]": {"target": "T9, AEA-DA-modified peptides in Neuro2a cells (Mus musculus, UniProt P67778)", "T9 construct": "endogenous in cells; host or cells: Neuro2a", "T9 sequence (P67778 whole entry)": "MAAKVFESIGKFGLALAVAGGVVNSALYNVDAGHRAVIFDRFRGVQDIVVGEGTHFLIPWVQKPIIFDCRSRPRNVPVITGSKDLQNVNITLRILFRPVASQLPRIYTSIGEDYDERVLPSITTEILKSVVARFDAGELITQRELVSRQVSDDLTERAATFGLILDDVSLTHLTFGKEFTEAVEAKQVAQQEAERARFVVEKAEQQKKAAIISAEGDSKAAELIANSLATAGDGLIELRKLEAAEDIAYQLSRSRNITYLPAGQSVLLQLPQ", "details": "AEA-DA-modified peptide PHB P67778 5-12, SEQ ID NO 85; probe 100 μM, 12 replicates", "procedure": "as §1, §2"}, "[10]": {"target": "T10, AEA-DA-modified peptides in Neuro2a cells (Mus musculus, UniProt Q9CQX2)", "T10 construct": "endogenous in cells; host or cells: Neuro2a", "T10 sequence (Q9CQX2 12-146)": "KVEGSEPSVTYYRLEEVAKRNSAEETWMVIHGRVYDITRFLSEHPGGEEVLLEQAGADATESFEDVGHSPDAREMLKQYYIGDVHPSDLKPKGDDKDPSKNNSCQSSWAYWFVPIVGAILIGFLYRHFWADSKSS", "details": "AEA-DA-modified peptide CYB5B Q9CQX2 138-145, SEQ ID NO 28; probe 100 μM, 12 replicates", "procedure": "as §1, §2"}, "[11]": {"target": "T11, AEA-DA-modified peptides in Neuro2a cells (Mus musculus, UniProt Q99M71)", "T11 construct": "endogenous in cells; host or cells: Neuro2a", "T11 sequence (Q99M71 38-224)": "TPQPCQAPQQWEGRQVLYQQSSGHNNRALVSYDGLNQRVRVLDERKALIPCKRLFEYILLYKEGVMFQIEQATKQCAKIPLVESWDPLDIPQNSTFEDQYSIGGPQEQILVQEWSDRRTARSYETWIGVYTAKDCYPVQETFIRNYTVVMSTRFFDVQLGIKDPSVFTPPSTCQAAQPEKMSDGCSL", "details": "AEA-DA-modified peptide EPDR1 Q99M71 171-182, SEQ ID NO 38; probe 100 μM, 12 replicates", "procedure": "as §1, §2"}, "[12]": {"target": "T12, AEA-DA-modified peptides in Neuro2a cells (Mus musculus, UniProt Q925I1)", "T12 construct": "endogenous in cells; host or cells: Neuro2a", "T12 sequence (Q925I1 whole entry)": "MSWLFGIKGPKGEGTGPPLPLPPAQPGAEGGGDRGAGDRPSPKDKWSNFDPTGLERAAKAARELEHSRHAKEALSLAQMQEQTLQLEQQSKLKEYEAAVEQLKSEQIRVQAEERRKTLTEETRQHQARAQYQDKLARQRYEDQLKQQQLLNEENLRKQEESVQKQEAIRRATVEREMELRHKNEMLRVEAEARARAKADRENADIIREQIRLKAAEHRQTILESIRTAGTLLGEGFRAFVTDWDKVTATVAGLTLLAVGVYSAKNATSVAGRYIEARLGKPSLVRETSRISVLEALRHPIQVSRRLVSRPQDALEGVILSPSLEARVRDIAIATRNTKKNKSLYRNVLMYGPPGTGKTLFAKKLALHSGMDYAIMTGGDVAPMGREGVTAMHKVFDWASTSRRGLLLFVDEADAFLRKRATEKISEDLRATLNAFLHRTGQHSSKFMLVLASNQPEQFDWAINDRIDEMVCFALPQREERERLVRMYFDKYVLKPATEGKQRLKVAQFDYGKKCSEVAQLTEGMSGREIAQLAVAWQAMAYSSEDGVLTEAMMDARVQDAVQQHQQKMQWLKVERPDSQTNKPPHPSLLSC", "details": "AEA-DA-modified peptide ATAD3 Q92511 238-246, SEQ ID NO 16; probe 100 μM, 12 replicates", "procedure": "as §1, §2"}},
  "data": [
    {"compound": "C#CCCCC1(CC/C=C\\C/C=C\\C/C=C\\CCCC(=O)NCCO)N=N1", "note": "[AEA-DA, (5Z,8Z,11Z)-N-(2-hydroxyethyl)-14-(3-(pent-4-yn-1-yl)-3H-diazirin-3-yl)tetradeca-5,8,11-trienamide]", "values": [
      {"measurement": "Times observed", "setting": "[1]", "result": 12},
      {"measurement": "Times observed", "setting": "[2]", "result": 4},
      {"measurement": "Times observed", "setting": "[3]", "result": 4},
      {"measurement": "Times observed", "setting": "[4]", "result": 2},
      {"measurement": "Times observed", "setting": "[5]", "result": 2},
      {"measurement": "Times observed", "setting": "[6]", "result": 2},
      {"measurement": "Times observed", "setting": "[7]", "result": 8},
      {"measurement": "Times observed", "setting": "[8]", "result": 8},
      {"measurement": "Times observed", "setting": "[9]", "result": 2},
      {"measurement": "Times observed", "setting": "[10]", "result": 2},
      {"measurement": "Times observed", "setting": "[11]", "result": 3},
      {"measurement": "Times observed", "setting": "[12]", "result": 3}
    ]}
  ]
}
